Legend:
water-load mice = assay: Urination frequency of water-load mice; assay type: in vivo; settings: imipramine 0.01 g/kg*d × 10, gavage
Excerpt: The experimental animal strains used herein are the SPF KM mice and Wistar rats. Each rat or mouse receives gavage drug administration. Shinyleaf yellowhorn extract is the refined extract from Refining Example IV, in the form of capsules. The control drug is imipramine, which has a strong anti-depression action and a weak atropine-like action, and is often used for treatment of the depression and children enuresis. The experimental method is calculating the urination frequency of mice based on the colorable reaction taking place when the dried potassium iodide and starch are mixed with the urine.

[1] = system: excised smooth muscle of bladder of rats; assay: Relaxation of excised smooth muscle of bladder of rats; assay type: cell-based; settings: rat bladder smooth muscle strips; 12 experiments
Excerpt: The experimental animal strain used herein is the SPF Wistar rats. The experiment process is as follows: the rat bladder is surgically excised to prepare the strips of smooth muscle; place the smooth muscle in the thermostat nutrient solution, and then added with Shinyleaf yellowhorn extract (the refined extract from Refining Example IV, in the form of capsules) and the imipramine respectively, under the oxygen supply conditions, to observe the changes in smooth muscle.

dementia rat model = assay: Avoidance conditioned reflex of the dementia rat model with destructed cholinergic neuron and Meynert basal ganglia; assay type: in vivo; settings: 0.2 g/kg, gavage
Excerpt: The animal model of senile dementia is established pursuant to the method disclosed in “Experimental Alzheimer's Disease Animal Model with Destructed Cholinergic Neuron” (Pharmacological Experimental Methodology, Third Edition, […]). The kainic acid is a receptor agonist for the central exciting neurotransmitter glutamate, which has been widely used as a tool drug to establish the neurotoxicity model by the international community. Administration mode: gavage administration. The Piracetam-NEGPF [piracetam, […] acetamide, amide pyrrole ring (ketone)] is a brain metabolism nootropics that can protect and repair cranial nerve cells, promote the transformation of ADP into ATP in the brain and the synthesis of acetylcholine and prevent against the brain function injury caused by the physical and chemical factors, and is used in clinic for the treatment of the brain function disorder due to aging, cerebral vascular accident, traumatic brain injury, and CO poisoning.

[2] = system: mouse sleeping model by sodium pentobarbital; assay: Sleeping hours of the mouse (sodium pentobarbital sleep model); assay type: in vivo; settings: mice, 0.02 g/kg gavage one hour prior to sodium pentobarbital
Excerpt: Establish the animal model of sleeping of the mouse by an intraperitoneal injection of sodium pentobarbital. Administer drug by gavage administration one hour prior to the injection, so as to observe the recovery time for the righting reflex of the mouse. Administration mode: gavage administration. The telucidone (meclofenoxate, or centrofenoxine) has an exciting action on central nerve and commonly used for the clinical treatment of traumatic unconscious disturbance and children enuresis.

[3] = system: external bladder sphincter of the rabbit; assay: Bioelectricity of the extracellular electrode of the external bladder sphincter of the rabbit; assay type: in vivo; settings: 0.4 mg/kg, gavage
Excerpt: Experimental method: surgically implant indwelling electrode and record the changes of the external bladder sphincter of the rabbit with a physiological recorder. Administration mode: gavage administration. The adrenomimetic drug Midodrine is a selective α1 adrenoceptor agonist, commonly used for treating of stress incontinence clinically.

CN(C)CCCN1c2ccccc2CCc2ccccc21 [Imipramine, imipramine]
Urination frequency (water-load mice; 0.5 h): 0.9 ± 0.7 times/each
Urination frequency (water-load mice; 1.0 h): 2.9 ± 1.3 times/each
Urination frequency (water-load mice; 2.0 h): 2.6 ± 1.5 times/each
Urination frequency (water-load mice; 3.0 h): 1.3 ± 0.8 times/each
Concentration of solution as smooth muscle shows complete relaxation [1]: 0.15 mg/mL

NC(=O)CN1CCCC1=O [Piracetam-NEGPF, piracetam]
Latency (dementia rat model; 72 h post stopping of training): 4.6 ± 0.7 s
Positive rate (dementia rat model; 72 h post stopping of training): 58.2 ± 7.4 %
Latency (dementia rat model; The fifth day): 2.6 ± 0.6 s
Positive rate (dementia rat model; The fifth day): 71.05 ± 8.2 %
Latency (dementia rat model; The first day): 7.1 ± 3.3 s
Positive rate (dementia rat model; The first day): 30.5 ± 12.7%
Latency (dementia rat model; The third day): 4.4 ± 1.0 s
Positive rate (dementia rat model; The third day): 57.6 ± 8.0 %

CN(C)CCOC(=O)COc1ccc(Cl)cc1 [Telucidone, meclofenoxate]
Hour of sleep [2]: 61.2 ± 10.7 min

COc1ccc(OC)c(C(O)CNC(=O)CN)c1 (centres unmarked) [Midodrine]
Frequency [3]: 35.4 ± 11.6 times/min
Time duration [3]: 18.7 ± 10.3 min
Wave amplitude [3]: 14.9 ± 6.7 mv

Reference: patent publication US20100034903A1, “SHINYLEAF YELLOWHORN EXTRACT, METHODS FOR EXTRACTION AND USES THEREOF” (priority 2006, published 2010)
